The numbers were not newly measured in patent US20100055177A1, “MODIFIED RELEASE COMPOSITION OF LEVETIRACETAM AND PROCESS FOR THE PREPARATION THEREOF” (priority 2008, published 2010), which cites them from elsewhere.

Turning to `CC[C@@H](C(N)=O)N1CCCC1=O` [levetiracetam, (−)-(S)-(alpha)-ethyl-2-oxo-1-pyrrolidine acetamide], the water solubility result is recorded as “about 1.04 g/ml”.
